Legend:
[1] = target: T1, VEGF Receptor 2 Kinase (VEGFR2) (Homo sapiens, UniProt P35968); assay: Determination of VEGF receptor 2 kinase (VEGFR2) inhibitory activity (alpha screen); type: biochemical; details: VEGFR2 intracellular domain protein, 25 μM ATP buffer, read-out: inhibitory rate (kinase inhibitory rate of VEGFR2)
T1 construct: made in house; host or cells: SF-21 insect cells, recombinant baculovirus BAC-VEGFR2 (pFASTBAC1)
Method: For cloning of human VEGF receptor 2 (hereinafter to be abbreviated as VEGFR2) gene, PCR was performed using cDNA Libraries Human Placenta (Clontech) as a template. The primer used for PCR was prepared by, based on the information of the base sequence (Genbank Accession AF035121) of VEGFR2 gene, adding a base sequence encoding the flag peptide and a restriction enzyme recognition sequence to the base sequence (2671-4374 of Genbank Accession AF035121) encoding the VEGFR2 intracellular domain, so that a flag tag would be added to the N terminal of the protein. The primer base sequence is shown in the following.
PCR reaction was carried out using a KOD-plus kit (TOYOBO). The obtained PCR product was electrophoresed on an agarose gel (1%), and a DNA fragment amplified by PCR was recovered from the gel and digested with restriction enzymes Sal I and Sph I. The DNA after the restriction enzyme treatment was electrophoresed on an agarose gel (1%), and the obtained DNA fragment was recovered and ligated to the plasmid pFASTBAC1 (Invitrogen) digested with restriction enzymes Sal I and Sph I to give an expression plasmid pFB-VEGFR2. The base sequence of the inserted fragment was confirmed to have matched with the base sequence (2671-4374 of Genbank Accession AF035121) of the VEGFR2 intracellular domain. Furthermore, virus stock BAC-VEGFR2 of the recombinant Baculovirus was prepared using BAC-TO-BAC Baculovirus Expression System (Invitrogen).
SF-21 cells were inoculated into 1 L of Sf-900IISFM medium (Invitrogen) containing 10% fetal calf serum (trace), 50 mg/L Gentamicin (Invitrogen) and 0.1% Pluronic F-68 (Invitrogen) at 1×10^6 cells/ml, and shake culture was performed using a 2 L Erlenmeyer flask at 27° C., 100 rpm. After 24 hr of culture, recombinant Baculovirus BAC-VEGFR2 (13.4 mL) was added, and the culture was continued for 3 days. The culture medium was centrifuged at 2,000 rpm for 5 min to give virus-infected cells. The infected cells were washed with phosphate buffered saline (Invitrogen), centrifuged under the same conditions, and preserved at −80° C. The cryopreserved cells were thawed in ice, suspended in 30 mL of buffer A (Tris buffer, pH 7.4, containing 20% glycerol and 0.15M NaCl (50 mM)) supplemented with Complete Protease Inhibitor (Boehringer), and disrupted three times using a polytron homogenizer (Kinematica) at 20,000 rpm, 30 sec. The disrupt was clarified by centrifugation at 40,000 rpm, 30 min and filtered through a 0.45 μm filter. The filtrate was passed through a column packed with Anti-FLAG M2 Affinity Gel (Sigma Ltd., 4 mL) at a flow rate of about 0.5 mL/min. The column was washed with buffer A and eluted with buffer A containing 100 μg/mL FLAG peptide. The eluate was concentrated by Vivaspin 20 (Viva Science) having a fraction molecular weight of 30K. The concentrate was applied to NAP™ 25 column (Amersham Biosciences) equilibrated with buffer A for buffer exchange. The fractions containing the VEGFR2 intracellular domain protein were collected, glycerol was added to the final concentration of 50% and the fractions cryopreserved at ˜80° C.
The test compound dissolved in dimethyl sulfoxide (DMSO) was diluted with a buffer (50 mM Tris-HCl, pH 7.5, 5 mM MgCl2, 5 mM MnCl2, 2 mM dithiothreitol, 0.01% Tween-20). A buffer (10 μl) containing 50 ng/ml VEGFR2 intracellular domain protein and 250 ng/ml biotin-labeled polypeptide biotinyl-poly-Glu:Tyr (4:1) (CIS Bio International) was added to the compound solution (5 μl). A buffer (10 μl) containing 25 μM ATP was added to the obtained mixture, the mixture was allowed to react at 25° C. for 5 min. Then, 25 μl of a stop solution (100 mM EDTA·2 sodium salt, 62.5 mM HEPES buffer (pH 7.4), 250 mM NaCl, 0.1% bovine serum albumin, 10 μg/ml Streptavidin Donor beads: PerkinElmer for alpha screen assay, 10 μg/ml Anti-phosphotyrosine (P-Tyr-100) Acceptor beads: PerkinElmer for alpha screen assay) was added to quench the reaction. […]

[2] = target: T2, PDGFR Alpha Receptor Kinase (PDGFRalpha) (Homo sapiens, UniProt P16234); assay: Determination of PDGFR alpha receptor kinase (PDGFRalpha) inhibitory activity (alpha screen); type: biochemical; details: PDGFRalpha intracellular domain protein, 25 μM ATP buffer; read-out: IC50 value (PDGFRalpha kinase inhibition)
T2 construct: PDGFRalpha intracellular domain protein (UPSTATE); purchased UPSTATE
T2 sequence (P16234 550-1089 limits assumed): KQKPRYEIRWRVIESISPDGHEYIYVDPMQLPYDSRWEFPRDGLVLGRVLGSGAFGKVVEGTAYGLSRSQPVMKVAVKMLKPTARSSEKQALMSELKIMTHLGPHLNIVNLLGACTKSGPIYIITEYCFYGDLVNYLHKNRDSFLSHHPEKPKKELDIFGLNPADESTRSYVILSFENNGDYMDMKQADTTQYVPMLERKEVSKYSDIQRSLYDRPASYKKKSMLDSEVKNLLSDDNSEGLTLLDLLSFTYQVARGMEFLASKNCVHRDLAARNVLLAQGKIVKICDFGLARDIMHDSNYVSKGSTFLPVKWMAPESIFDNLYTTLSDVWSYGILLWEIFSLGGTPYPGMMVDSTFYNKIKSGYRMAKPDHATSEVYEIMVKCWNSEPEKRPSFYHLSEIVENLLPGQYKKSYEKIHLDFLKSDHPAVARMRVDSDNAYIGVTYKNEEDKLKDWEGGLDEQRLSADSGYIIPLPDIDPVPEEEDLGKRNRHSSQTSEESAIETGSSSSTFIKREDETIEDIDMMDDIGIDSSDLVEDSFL
Method: The test compound dissolved in dimethyl sulfoxide (DMSO) was diluted with a buffer (50 mM Tris-HCl, pH 7.5, 5 mM MgCl2, 5 mM MnCl2, 2 mM dithiothreitol, 0.01% Tween-20).
Acceptor beads: PerkinElmer for alpha screen assay) was added to quench the reaction. The reaction solution was stood at 25° C. for 16 hr, and the count was measured using a plate reader·Fusion™ (manufactured by PerkinElmer). The kinase inhibitory rate (%) of the test compound was calculated by the following formula.
(§1) Inhibitory rate(%)=(1−(count of test compound−blank)÷(control−blank))×100
(§2) wherein the count of the solution reacted without addition of the compound is “control” and the count of the solution without addition of the compound and ATP is “blank”.

[3] = target: T3, PDGFRbeta Receptor Kinase (PDGFRbeta) (Homo sapiens, UniProt P09619); assay: Determination of PDGFRbeta receptor kinase (PDGFRbeta) inhibitory activity (alpha screen); type: biochemical; details: PDGFRbeta intracellular domain protein, 25 μM ATP buffer; read-out: IC50 value (PDGFRbeta kinase inhibition)
T3 construct: PDGFRbeta intracellular domain protein (UPSTATE); purchased UPSTATE
T3 sequence (P09619 554-1106 limits assumed): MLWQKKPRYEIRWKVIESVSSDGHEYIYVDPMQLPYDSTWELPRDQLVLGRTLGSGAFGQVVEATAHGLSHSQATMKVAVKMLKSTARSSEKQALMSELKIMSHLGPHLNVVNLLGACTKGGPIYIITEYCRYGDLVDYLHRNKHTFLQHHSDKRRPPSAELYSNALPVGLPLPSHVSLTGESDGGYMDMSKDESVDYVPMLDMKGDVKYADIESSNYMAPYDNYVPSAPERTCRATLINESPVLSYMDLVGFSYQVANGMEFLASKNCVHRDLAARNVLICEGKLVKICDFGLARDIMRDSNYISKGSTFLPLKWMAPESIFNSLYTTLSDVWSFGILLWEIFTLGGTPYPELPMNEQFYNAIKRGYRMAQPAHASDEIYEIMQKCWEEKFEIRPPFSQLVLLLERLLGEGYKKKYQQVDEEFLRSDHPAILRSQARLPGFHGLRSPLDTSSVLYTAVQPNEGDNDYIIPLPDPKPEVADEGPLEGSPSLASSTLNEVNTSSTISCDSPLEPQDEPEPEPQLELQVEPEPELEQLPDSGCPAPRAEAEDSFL
Method: (§3) The test compound dissolved in dimethyl sulfoxide (DMSO) was diluted with a buffer (50 mM Tris-HCl, pH 7.5, 5 mM MgCl2, 5 mM MnCl2, 2 mM dithiothreitol, 0.01% Tween-20). A buffer (10 μl) containing 125 ng/ml PDGFRbeta intracellular domain protein (UPSTATE) and 250 ng/ml biotin-labeled polypeptide biotinyl-poly-Glu:Tyr (4:1) (CIS Bio International) was added to the compound solution (5 μl). At 5 min after mixing a kinase enzyme, the compound and a biotin-labeled polypeptide, a buffer (10 μl) containing 25 μM ATP was added to the obtained mixture, the mixture was allowed to react at 25° C. for 30 min. Then, 25 μl of a stop solution (100 mM EDTA·2 sodium salt, 62.5 mM HEPES buffer (pH 7.4), 250 mM NaCl, 0.1% bovine serum albumin, 10 μg/ml Streptavidin Donor beads: PerkinElmer for alpha screen assay, 10 μg/ml Anti-phosphotyrosine (P-Tyr-66) Acceptor beads: PerkinElmer for alpha screen assay) was added to quench the reaction. The reaction solution was stood at 25° C. for 16 hr, and the count was measured using a plate reader·Fusion™ (manufactured by PerkinElmer). The kinase inhibitory rate (%) of the test compound was calculated by the following formula.
as §1, §2

[4] = tested on: Human umbilical vein endothelial cells (HUVEC); assay: Vascular endothelial cell growth inhibitory test; type: cell-based; details: Homo sapiens, 120 h, VEGF 120 ng/mL, culture 5 days, XTT reagent
Method: Human umbilical vein endothelial cells (HUVEC, purchased from KURABO) were cultured in a gas incubator (37° C., CO2 5%) in a vascular endothelial cell medium (Invitrogen) containing 5% fetal calf serum and a basic fibroblast growth factor (2.5 ng/mL). To be specific, HUVEC suspended in the aforementioned vascular endothelial cell medium (Invitrogen) containing 5% fetal calf serum were seeded into a 96 well flat-bottom plate (50 μL, 3000 cells each well). After culturing overnight, various concentrations of test substance and the final concentration (120 ng/mL) of vascular endothelial growth factor (VEGF) were dissolved in a vascular endothelial cell medium (Invitrogen) containing 5% fetal calf serum and added to each well (50 μL). After culturing for 5 days, an XTT reagent (Wako Pure Chemical Industries, Ltd.) was added to each well (10 μL), and reacted in a gas incubator (37° C., CO2 5%) for 2-3 hr. The absorbance at 450 nm was measured by a microtiter plate reader, and the cell growth inhibitory activity was determined.

[5] = target: T4, TIE2 Receptor Kinase (TIE2) (Homo sapiens, UniProt Q02763); assay: Determination of TIE2 receptor kinase (TIE2) inhibitory activity (alpha screen); type: biochemical; details: TIE2 intracellular domain protein, 5 μM ATP buffer; read-out: IC50 value (TIE2 kinase inhibition)
T4 construct: TIE2 intracellular domain protein (UPSTATE); purchased UPSTATE
T4 sequence (Q02763 770-1124 limits assumed): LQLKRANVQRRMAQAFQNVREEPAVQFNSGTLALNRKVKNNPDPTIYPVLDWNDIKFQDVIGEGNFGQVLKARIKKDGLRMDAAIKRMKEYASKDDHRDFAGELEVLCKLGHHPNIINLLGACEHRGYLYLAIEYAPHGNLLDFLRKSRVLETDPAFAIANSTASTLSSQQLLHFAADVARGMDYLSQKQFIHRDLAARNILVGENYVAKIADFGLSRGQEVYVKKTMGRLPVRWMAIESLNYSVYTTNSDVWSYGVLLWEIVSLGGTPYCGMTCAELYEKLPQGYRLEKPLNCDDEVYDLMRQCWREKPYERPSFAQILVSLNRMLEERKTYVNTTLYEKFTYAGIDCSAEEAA
Method: as §3, with “containing 50” for “containing 125”, “ng/ml TIE2” for “ng/ml PDGFRbeta”, “containing 5” for “containing 25”, “for 10” for “for 30”
as §1, §2
Prism (Graphpad Software) according to the nonlinear-regression sigmoidal dose-response (variable slope) analysis method.

T1 sequence (P35968 786-1356 limits assumed): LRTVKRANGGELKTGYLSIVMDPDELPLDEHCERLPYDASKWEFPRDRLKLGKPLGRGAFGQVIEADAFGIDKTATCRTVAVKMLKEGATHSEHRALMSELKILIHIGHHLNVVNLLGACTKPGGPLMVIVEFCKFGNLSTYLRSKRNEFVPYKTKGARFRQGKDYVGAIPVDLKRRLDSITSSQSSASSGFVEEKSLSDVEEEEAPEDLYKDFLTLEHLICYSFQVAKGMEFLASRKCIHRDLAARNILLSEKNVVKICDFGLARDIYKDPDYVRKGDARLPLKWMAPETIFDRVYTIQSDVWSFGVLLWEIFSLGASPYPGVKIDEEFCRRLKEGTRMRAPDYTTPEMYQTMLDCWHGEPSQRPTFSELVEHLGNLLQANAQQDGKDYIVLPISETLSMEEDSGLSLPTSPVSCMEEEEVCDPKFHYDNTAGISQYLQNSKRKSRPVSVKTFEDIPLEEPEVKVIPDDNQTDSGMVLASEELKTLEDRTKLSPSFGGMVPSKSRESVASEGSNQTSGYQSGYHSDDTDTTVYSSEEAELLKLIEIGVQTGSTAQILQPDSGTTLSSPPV

## Cn1ccc2ncnc(Oc3ccc(NC(=O)Nc4cccc(Cl)c4)cc3)c21 [Example 4, N-(3-chlorophenyl)-N′-{4-[(5-methyl-5H-pyrrolo[3,2-d]pyrimidin-4-yl)oxy]phenyl}urea]
[1]
  inhibition at 1 µM: ≥ 90%
[2]
  IC50: ≤ 0.5 µM
[3]
  IC50: ≤ 0.5 µM
[4]
  IC50: 0.091 µM

## Cc1cccc(NC(=O)Nc2ccc(Oc3ncnc4ccn(C)c34)cc2)c1 [Example 18, N-(3-methylphenyl)-N′-{4-[(5-methyl-5H-pyrrolo[3,2-d]pyrimidin-4-yl)oxy]phenyl}urea]
[1]
  inhibition at 1 µM: ≥ 90%
[2]
  IC50: ≤ 0.5 µM
[3]
  IC50: ≤ 0.5 µM
[4]
  IC50: 0.053 µM

## COc1cc(Oc2ncnc3ccn(C)c23)ccc1NC(=O)Nc1cccc(C(F)(F)F)c1 [Example 77, N-{2-methoxy-4-[(5-methyl-5H-pyrrolo[3,2-d]pyrimidin-4-yl)oxy]phenyl}-N′-[3-(trifluoromethyl)phenyl]urea]
[1]
  inhibition at 1 µM: ≥ 90%
[2]
  IC50: ≤ 0.5 µM
[3]
  IC50: ≤ 0.5 µM
[5]
  IC50: ≤ 0.005 µM
